Series [1] relates to Bacillus cereus ATCC 10876. Kind of series: microbe, parasite or virus in culture. It counts as cell-based. To be noted: B. cereus ATCC 10876, MHB, 37°C 6 h + 2 h, triplicate. As to the method: (§1) Peptides corresponding to the predicted antimicrobial regions of ModoCath1 (ΔModoCath1, N-VKRTKRGARRGL […]-C), ModoCath5 (ΔModoCath5, N-[…]-C), ModoCath6 (ΔModoCath6, N-[…]-C) and PMAP36 (N-[…] PLGCG-C) were synthesized via solid-phase peptide synthesis and purified via high-performance liquid chromatography using a commercial service (GenScript, Piscataway Township, NJ, United States). The MIC of synthesized peptides was determined against a panel of bacteria comprising 3 gram-positive strains, Staphylococcus aureus ATCC 6538 (ATCC, Manassas, VA, United States), Bacillus cereus ATCC 10876, and Enterococcus faecalis ATCC 29212, and 3 gram-negative strains, Escherichia coli ATCC 25922, Pseudomonas aeruginosa ATCC 27853, and Salmonella typhimurium ATCC 14028. Ampicillin (Sigma Aldrich, St. Louis, MO, United States) and gentamicin sulfate (Sigma Aldrich) were used as controls for antimicrobial activity. The MIC was determined using a colorimetric method specified by the Microbial Viability Assay Kit-WST (Dojindo, Kumamoto, Japan) in accordance with the manufacturer’s protocol and the Clinical and Laboratory Standards Institute (CLSI) guidelines (2018). Briefly, four colonies of each bacterium were inoculated into 5 mL Luria-Bertani (LB) broth medium at 37°C for 4 to 6 h. The cells were washed with sterile saline (0.9% NaCl) twice and seeded in a single well of a 96-well plate at the cell density of 10^5 CFU/well. Subsequently, 180 μL/well of fresh Mueller-Hinton broth (MHB) was added to the plate. Different concentrations of each peptide and reference antibiotics were serially diluted in 10 μL of MHB and added to each well. The plate was incubated at 37°C for 6 h. Cation-adjusted MH broth (CAMHB) was used to culture E. faecalis. Subsequently, 10 μL of the coloring reagent was added, and cells were incubated at 37°C for 2 h. UV absorbance was measured for each well at 450 nm, using a microplate spectrophotometer (xMark spectrophotometer; Bio-Rad, Hercules, CA, United States). MIC values were determined when the difference in the optical density (OD) between treatments and blanks (media and coloring reagent only) decreased to < 0.05. Experiments were conducted in triplicate. […] The pH conditions were achieved by using acetic acid (Sigma Aldrich).

Series [2] deals with Enterococcus faecalis ATCC 29212. Kind of series: microbe, parasite or virus in culture. The class given is cell-based. To be noted: E. faecalis ATCC 29212, CAMHB, 37°C 6 h + 2 h, triplicate. As to the method:
as §1

Series [3] concerns Escherichia coli ATCC 25922. Kind of series: microbe, parasite or virus in culture. It counts as cell-based. To be noted: E. coli ATCC 25922, MHB, 10^5 CFU/well, 37°C 6 h + 2 h with coloring reagent, OD 450 nm, triplicate. The protocol:
as §1

Series [4] has as its system Pseudomonas aeruginosa ATCC 27853. Kind of series: microbe, parasite or virus in culture. The class given is cell-based. To be noted: P. aeruginosa ATCC 27853, MHB, 37°C 6 h + 2 h, triplicate. As to the method:
as §1

In series [5] the test system is Salmonella typhimurium ATCC 14028. Kind of series: microbe, parasite or virus in culture. It counts as cell-based. To be noted: S. typhimurium ATCC 14028, MHB, 37°C 6 h + 2 h, triplicate. The protocol:
as §1

For series [6], the system named is Staphylococcus aureus ATCC 6538. Kind of series: microbe, parasite or virus in culture. The class given is cell-based. Particulars: S. aureus ATCC 6538, MHB, 37°C 6 h + 2 h, triplicate. As to the method:
as §1

The subject of series [7] is HEK293T. Kind of series: Mammalian cell cytotoxicity, WST-1. It counts as cell-based, human. To be noted: positive control for complete cell lysis, concentration not given. As to the method:
(§2) Two mammalian cell lines, including human embryonic kidney cells (HEK293T) and human breast cancer cells (MCF7) were cultured in Dulbecco’s modified Eagle’s medium (DMEM; Hyclone^TM, Logan, UT, United States) supplemented with 10% FBS (Hyclone^TM) and 1% penicillin/streptomycin (Hyclone^TM) and incubated at 37°C and 5% CO2 up to 80% confluence. Cellular adherence to the substratum was disrupted using Accutase (Innovative Cell Technologies, San Diego, CA, United States). In total, 1 × 10^4 to 4 × 10^4 cells in each well of a 96-well plate containing 8, 16, 32, and 64 μg/mL of ModoCath peptides were incubated for 24 h at 37°C and 5% CO2. Additionally, HEK293T cells were incubated in the FBS-free medium. Triton X 100 (Sigma Aldrich) was used as a positive control for complete cell lysis, and untreated cells were used as the negative control. After incubation, the medium was removed from the wells, and 10 μL of coloring solution (Cell Proliferation Reagent WST-1^TM; Sigma Aldrich) and 100 μL of DMEM (Hyclone^TM) were added to the wells in accordance with the manufacturer’s protocol. Absorbance was measured for each well at 440 nm (peptide-treated and control) and 650 nm (background) and recorded as the OD, using a microplate reader (xMark^TM spectrophotometer; Bio-Rad). Cell viability was calculated using the following equation:
(§3) (1) CellViability(%)=100×(ODpeptide-ODbackground)/(ODnegative-ODbackground)
(§4) All experiments were performed in triplicate.
(Tetrazolium dyes change colour on reduction, which living cells bring about.)

Series [8] relates to MCF7. Kind of series: Mammalian cell cytotoxicity, WST-1. To be noted: positive control for complete cell lysis, concentration not given. The class given is cell-based, human. The protocol:
as §2, §3, §4

Series [9] has as its system Human primary keratinocytes. Kind of series: Viability of keratinocytes, XTT. Particulars: positive control, concentration not given. The class given is cell-based. The source says: The Ethics Committee of the Poitiers Hospital approved the use of human skin samples for research studies. All subjects provided written informed consent in accordance with the tenets of the Declaration of Helsinki. Normal abdominal or breast skin samples were obtained from patients undergoing plastic surgery and thoroughly washed with PBS free of calcium and magnesium (PBS; Gibco, Thermo Fisher Scientific, Waltham, MA, United States) after fat removal. The skin samples were minced into fragments of approximately 125 mm^2, using scalpel blades. Skin samples were incubated overnight at 4°C in a dispase solution (25 U/mL; Life Technologies, Carlsbad, CA, United States). Epidermal sheets were removed from the dermis, and keratinocytes were dissociated via trypsin digestion (trypsin-EDTA; Gibco) for 15 min at 37°C. The cell suspension was then filtered through a 280-μm sterile filter. DMEM (Gibco) supplemented with 10% (vol/vol) of FBS (Gibco) was added, and the suspension was centrifuged at 300 × g and 25°C for 10 min. Keratinocytes were seeded at a density of 10^7 cells in 75-cm^2 tissue culture flask in keratinocyte-serum free medium (K-SFM; Invitrogen, Carlsbad, CA, United States) supplemented with bovine pituitary extract (25 μg/mL; Invitrogen) and recombinant epidermal growth factor (EGF) (0.25 ng/mL; Invitrogen). The cultures were incubated at 37°C in a humidified atmosphere with 5% CO2 until 80% confluence and then stored frozen in liquid nitrogen until use. Finally, keratinocytes were seeded in sterile 24-well culture plates at 10^5 cells/well in K-SFM supplemented with bovine pituitary extract and EGF and cultured to 80% confluence. Cells were then starved overnight in K-SFM alone before stimulation.
Primary keratinocytes were cultured in 96-well plates at 4 × 10^4 cells per well in 0.1 mL K-SFM (Invitrogen) up to 80% confluence before being treated with various concentrations of ModoCath peptides for 24 h. Cell viability was assessed using the cell proliferation kit II (XTT; Roche, Basel, Switzerland) in accordance with the manufacturer’s protocol. The XTT labeling mixture was added after 24 h of incubation in the absence or presence of peptides at the indicated concentrations.

The mark [10] stands for this setting: Bacillus cereus, ATCC10876, read-out: MIC.
The mark [11] stands for this setting: Escherichia coli, ATCC25922, read-out: MIC.
The mark [12] stands for this setting: Staphylococcus aureus, ATCC6538, read-out: MIC.

Like-named read-outs stand apart in the source and are kept apart here.

Take `CC1(C)S[C@@H]2[C@H](NC(=O)[C@H](N)c3ccccc3)C(=O)N2[C@H]1C(=O)O` [Ampicillin, reference compound]: the MIC was 16 µg/mL in series [1] (setting [10]); 2 µg/mL in series [2] (Enterococcus faecalis, ATCC29212, read-out: MIC); 1 µg/mL in series [3] (setting [11]); > 128 µg/mL in [4] (Pseudomonas aeruginosa, ATCC27853, read-out: MIC); 1 µg/mL in [5] (Salmonella enterica, read-out: MIC); 1 µg/mL in series [6] (setting [12]).

On to `CN[C@H](CC(C)C)C(=O)N[C@H]1C(=O)N[C@@H](CC(N)=O)C(=O)N[C@H]2C(=O)N[C@H]3C(=O)N[C@H](C(=O)N[C@H](C(=O)O)c4cc(O)cc(O)c4-c4cc3ccc4O)[C@H](O)c3ccc(c(Cl)c3)Oc3cc2cc(c3O[C@@H]2O[C@H](CO)[C@@H](O)[C@H](O)[C@H]2O[C@H]2C[C@](C)(N)[C@H](O)[C@H](C)O2)Oc2ccc(cc2Cl)[C@H]1O` [Vancomycin], for which the MIC in series [1] (setting [10]) was 4 µg/mL; in series [3] (setting [11]), 32 µg/mL; in [6] (setting [12]), 5 µg/mL.

Nisin: the values for the MIC in series [1], in series [3] and in series [6] were 32 (9.54) μg/mL, > 32(9.54) μg/mL and 15 (4.47) μg/mL, respectively.

With Triton X-100 [reference compound], the “Cell viability ± SD” value is recorded as 11.6 ± 2.5% in [7], 11.4 ± 0.4% in series [8] and 8.2 ± 0.4% in series [9].

Take “gentamicin sulfate [Gentamycin, reference compound]”: the MIC in series [1] is 1 (2.09) μg/mL; in series [2] it was 5 (10.45) μg/mL; in [3], 1 (2.09) μg/mL; in series [4], 1 (2.09) μg/mL; in [5] it was 1 (2.09) μg/mL; in [6], 1 (2.09) μg/mL.

These data come from paper PMC7063992, “Opossum Cathelicidins Exhibit Antimicrobial Activity Against a Broad Spectrum of Pathogens Including West Nile Virus” (Frontiers in Immunology, 2020).
